Data taken from ChEMBL document CHEMBL1126495, “A new series of potent LTD4 antagonists in the styrylquinoline class” (Bioorg Med Chem Lett, 1993).

Target: T1, Cysteinyl leukotriene receptor 1 (Cavia porcellus, UniProt Q2NNR5)
T1 sequence (Q2NNR5 whole entry): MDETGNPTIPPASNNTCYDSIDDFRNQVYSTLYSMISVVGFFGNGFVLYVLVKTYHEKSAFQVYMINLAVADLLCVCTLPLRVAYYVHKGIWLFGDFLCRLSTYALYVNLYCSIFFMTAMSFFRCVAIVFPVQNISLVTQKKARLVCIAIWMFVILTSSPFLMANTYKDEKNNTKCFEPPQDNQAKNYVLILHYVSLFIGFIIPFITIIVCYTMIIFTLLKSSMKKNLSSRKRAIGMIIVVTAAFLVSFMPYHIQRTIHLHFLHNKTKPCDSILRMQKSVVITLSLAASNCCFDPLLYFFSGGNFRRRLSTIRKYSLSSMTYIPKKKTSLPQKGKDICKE
Assay: Inhibition of [3H]LTD4 binding to guinea-pig lung membrane
Format: tissue-based

SMILES | IC50 [nM]
CC(CC[C@H](SCCCC(C)(C)O)c1cccc(/C=C/c2ccc3ccc(Cl)cc3n2)c1)CC(=O)O (stereo partly drawn) | 0.5
CC(C)(O)CCCSC(CCC(C)(C)CC(=O)O)c1cccc(/C=C/c2ccc3ccc(Cl)cc3n2)c1 (stereo not drawn) | 1.3
CC(C)(CC[C@H](SCCc1ccccn1)c1cccc(CCc2ccc3ccc(Cl)cc3n2)c1)CC(=O)O | 2.2
C[C@H](CCC[C@H](SCCC(=O)N(C)C)c1cccc(/C=C/c2ccc3ccc(Cl)cc3n2)c1)C(=O)O | 2.3
CC(C)(CC[C@@H](SCc1ccccc1C(C)(C)O)c1cccc(CCc2ccc3ccc(Cl)cc3n2)c1)CC(=O)O | 1.9
C[C@H](CCC[C@@H](SCCC(C)(C)O)c1cccc(/C=C/c2ccc3ccc(Cl)cc3n2)c1)C(=O)O | 0.8
CC(C)(CC[C@H](SCc1ccccc1C(C)(C)O)c1cccc(/C=C/c2ccc3ccc(Cl)cc3n2)c1)CC(=O)O | 0.6
CC(C)(CC[C@@H](SCc1ccccc1C(C)(C)O)c1cccc(/C=C/c2ccc3ccc(Cl)cc3n2)c1)CC(=O)O | 1
CC(C)(CC[C@H](SCc1ccccc1C(C)(C)O)c1cccc(CCc2ccc3ccc(Cl)cc3n2)c1)CC(=O)O | 0.6
CC(C)(CC[C@H](SCc1ccccn1)c1cccc(CCc2ccc3ccc(Cl)cc3n2)c1)CC(=O)O | 1.6
C[C@H](CCC[C@H](SCCC(C)(C)O)c1cccc(/C=C/c2ccc3ccc(Cl)cc3n2)c1)C(=O)O | 2
CC(C)(O)c1ccccc1CS[C@@H](CCC1(CC(=O)O)CC1)c1cccc(CCc2ccc3ccc(Cl)cc3n2)c1 | 1.4
C[C@H](CCC[C@@H](SCCC(=O)N(C)C)c1cccc(/C=C/c2ccc3ccc(Cl)cc3n2)c1)C(=O)O | 0.9
